# Columns and labels:
# Mac-1-HEK293 cells = test: Translocation of Dyn A into Mac-1-HEK293 cells (immunolabeling); assay type: cell-based, Human; settings: 40 min at 37 °C
# Protocol: Fig. 5 Translocation of Dyn A into cells. Mac-1-expressing (a) and wild-type HEK293 (b) cells were incubated with 20 μM and 100 μM of Dyn A for 40 min at 37 °C, fixed, permeabilized and incubated with anti-dynorphin antibodies followed by Alexa Fluor 488-conjugated secondary goat anti-rabbit antibodies. No labeling was detected in the absence of primary antibody. c, Enlarged images of Dyn A-accumulated Mac-1- and wild-type HEK cells shown in a and b. d, Quantification of fluorescent cells shown in a and b
# Mac-1-HEK 293 and wild-type HEK 293 cells were incubated for 10 min with different concentrations (0–100 μM) of Dyn A and allowed to adhere to glass coverslips coated with poly-Lysine for 30 min. Adherent cells were fixed in 2 % paraformaldehyde solution, permeabilized with 0.1 % Tween-20, and blocked with 10 % normal goat serum plus 1 % BSA. The coverslips were incubated with 5 μg/ml polyclonal anti-Dyn A antibody followed by an secondary goat anti-rabbit antibody conjugated to Alexa Fluor 488 (1:1000). Images were taken using a Leica DM 4000B microscope (Leica, Buffalo Grove, IL).
# wild-type HEK293 cells = test: Adhesion of wild-type HEK293 cells to immobilized peptide; assay type: cell-based, Human; settings: coated wells, calcein-labeled cells, 30 min at 37 °C
# Protocol: Fig. 3 Adhesion of Mac-1-expressing cells to Dyn A and Dyn B. a, Mac-1-expressing and wild-type HEK293 cells were labeled with calcein and 5x10^4 cells were added to the wells coated with different concentrations of the Dyn A. After 30 min at 37 °C, nonadherent cells were removed and fluorescence was measured. The data shown are means of triplicate determinations, and error bars represent S.E. The figure is representative of 8 experiments. b , adhesion of HEK293 cells expressing Mac-1, LFA and the I-less form of Mac-1 to Dyn A and Dyn B immobilized at 10 μM was determined as described in A. c, calcein-labeled Mac-1-HEK293 cells were preincubated without or with 10 μg/ml of anti-αM mAb 44a or 1 μg/ml NIF for 15 minutes. For testing the role of glucosaminoglycans in cell adhesion, dynorphin A-coated wells were preincubated with 100 μl of 10 μg/ml of chondroitin sulfate A, chondroitin sulfate B and heparin. […]
# Adhesion assays were performed essentially as described previously. […] Fluorescence was measured in a CytoFluorII fluorescence plate reader (Perceptive Biosystems, Framingham, MA). […] After aspirating the solution, labeled cells were added and cell adhesion was analyzed as above.
# [1] = test system: mouse peritoneal macrophages; settings: cited from earlier work
# From the text: Apart from their effects on κ-opioid receptors on neurons, Dyn A exerts numerous effects on leukocytes, particularly myeloid cells. […] Similar to other cationic peptides, Dyn A can exert some effects essential for host defense.
# [2] = biological target: T1, Mac-1 (Mac-1-expressing HEK293 cells) (Homo sapiens, UniProt P05107+P11215); test: Adhesion of Mac-1-HEK293 cells to immobilized peptide; assay type: cell-based; settings: 30 min at 37 °C
# T1 construct: expressed in transfected cells
# Protocol: For testing the role of glucosaminoglycans in cell adhesion, dynorphin A-coated wells were preincubated with 100 μl of 10 μg/ml of chondroitin sulfate A, chondroitin sulfate B and heparin. Aliquots (5x10^4cells) were added to the wells coated with 2 μM dynorphin A and adhesion was performed as described in A. Adhesion in the absence of Mac-1 inhibitors and glucosaminoglycans was assigned a value of 100 %. The data shown are the means ± S.E. from four separate experiments each with triplicate measurements. d , microtiter plate wells were coated with different concentrations of dynorphin B and adhesion of Mac-1-expressing and wild-type HEK293 cells was determined as described in A. The data shown are means of triplicate determinations, and error bars represent S.E. The figure is representative of 5 experiments. e. calcein-labeled Mac-1-HEK293 cells were preincubated without or with 10 μg/ml of mAb 44a and heparin, added to the wells coated with 20 μM of dynorphin B and adhesion was performed as described in A. Adhesion in the absence of inhibitors was assigned a value of 100 %.
# Adhesion assays were performed essentially as described previously. […] Cells were labeled with 10 μM calcein for 30 min at 37 °C and washed twice with Hanks’ Balanced salt solution (HBSS) containing 0.1 % BSA. Aliquots (100 μl) of labeled cells (5x10^5/ml) were added to each well and allowed to adhere for 30 min at 37 °C. The non-adherent cells were removed by two washes with PBS. Fluorescence was measured in a CytoFluorII fluorescence plate reader (Perceptive Biosystems, Framingham, MA). In inhibition experiments, cells were mixed with different concentrations of peptides, NIF or mAbs for 20 min at 22 °C before they were added to the wells coated with adhesive substrates. In a separate set of experiments, after coating plates with dynorphins and post-coating with 1 % PVP, plates were incubated with 100 μl of 10 μg/ml chondroitin sulfate A, chondroitin sulfate B, or heparin for 20 min at 22 °C. After aspirating the solution, labeled cells were added and cell adhesion was analyzed as above.
# [3] = test system: μ- and δ-opioid receptors; set-up: method as in PMID 8624732; settings: cited from earlier work
smiles,measurement,setting,value
CC[C@H](C)[C@H](NC(=O)[C@H](CCCNC(=N)N)NC(=O)[C@H](CCCNC(=N)N)NC(=O)[C@H](CC(C)C)NC(=O)[C@H](Cc1ccccc1)NC(=O)CNC(=O)CNC(=O)[C@@H](N)Cc1ccc(O)cc1)C(=O)N[C@@H](CCCNC(=N)N)C(=O)N1CCC[C@H]1C(=O)N[C@@H](CCCCN)C(=O)N[C@@H](CC(C)C)C(=O)N[C@@H](CCCCN)C(=O)N[C@@H](Cc1c[nH]c2ccccc12)C(=O)N[C@@H](CC(=O)O)C(=O)N[C@@H](CC(N)=O)C(=O)N[C@@H](CCC(N)=O)C(=O)O [Dyn A],Localization of Dyn A in Mac-1-HEK293 cells,Mac-1-HEK293 cells; 20 μM Dyn A,primarily associated with the cell periphery
same,Number of Mac-1-HEK293 cells accumulating Dyn A vs wild-type,"Mac-1-HEK293 cells; Dyn A, anti-dynorphin antibodies",significantly smaller number of Mac-1-HEK293 cells accumulated Dyn A
same,Adhesion of wild-type HEK293 cells (in words),wild-type HEK293 cells,adhered only slightly
same,Phagocytosis by mouse peritoneal macrophages,[1],enhance phagocytosis by mouse peritoneal macrophages
same,Coating concentration giving saturable adhesion,[2]; Mac-1-HEK293 cells,~ 2 μM
same,Adhesion of Mac-1-HEK293 cells (in words),"[2]; coated wells, calcein-labeled cells",strongly adhered
same,EC50,"[2]; read-out: Coating concentration required to reach 50 % of maximal cell adhesion, Mac-1-HEK293 cells, fluorescence of calcein",200 to 500 nM
same,μ- and δ-opioid receptor binding,[3],can bind to μ- and δ-opioid receptors
